This passage reports Activity results from ChEMBL document CHEMBL1158328, “Three new pseudodistomins, piperidine alkaloids from the ascidian Pseudodistoma megalarva” (1997).

Common to all, as to assay type: functional
For test [1], the system named is Saccharomyces cerevisiae. As to the kind of experiment: DNA damaging activity against wild-type Saccharomyces cerevisiae assessed as drug level required to produce 12 mm zone of inhibition assessed per 100 uL after 48 hrs.
Test [2] relates to Saccharomyces cerevisiae. As to the kind of experiment: DNA damaging activity against RAD52 DNA repair gene/topoisomerase 1 deficient Saccharomyces cerevisiae GAL4:RAD52 mutant assessed as drug level required to produce 12 mm zone of inhibition assessed per 100 uL in glucose medium after 48 hrs.
The subject of test [3] is Saccharomyces cerevisiae. Briefly: DNA damaging activity against RAD52 DNA repair gene deficient Saccharomyces cerevisiae mutant assessed as drug level required to produce 12 mm zone of inhibition assessed per 100 uL after 48 hrs.
For test [4], the system named is Saccharomyces cerevisiae. As to the kind of experiment: DNA damaging activity against RAD52 DNA repair gene/topoisomerase 1 deficient Saccharomyces cerevisiae GAL4:RAD52 mutant assessed as drug level required to produce 12 mm zone of inhibition assessed per 100 uL in galactose medium after 48 hrs.

As to `COc1cc(NS(C)(=O)=O)ccc1Nc1c2ccccc2nc2ccccc12` [AMSACRINE], the Activity with Saccharomyces cerevisiae [1] was more than 20 µg; in the test with Saccharomyces cerevisiae [2], 2.7 µg; in the test with Saccharomyces cerevisiae [3] it was 8.2 µg; with Saccharomyces cerevisiae [4] it was more than 20 µg.
Take `CCCC/C=C/C=C/CCCCC[C@@H]1C[C@@H](O)[C@@H](N)CN1` [PSEUDODISTOMIN B]: the Activity in the test on Saccharomyces cerevisiae [1] is 13 µg; in the test on Saccharomyces cerevisiae [2] it was 1.5 µg; in the test with Saccharomyces cerevisiae [3] it was 1.8 µg; in the test with Saccharomyces cerevisiae [4] it was 1.5 µg.
For the molecule `CCCC/C=C/C=C/CCC/C=C/C=C/[C@@H]1C[C@H](O)[C@H](N)CN1` [PSEUDODISTOMIN C], the Activity was 38 µg with Saccharomyces cerevisiae [1], 12 µg in the test with Saccharomyces cerevisiae [2], 20 µg with Saccharomyces cerevisiae [3] and 13 µg in the test on Saccharomyces cerevisiae [4].
Turning to `CCCC/C=C/C=C/CCCCC[C@@H]1C[C@H](O)[C@@H](N)CN1` [PSEUDODISTOMIN D], the Activity with Saccharomyces cerevisiae [1] came to 11 µg; in the test with Saccharomyces cerevisiae [2] it was 1.9 µg; in the test with Saccharomyces cerevisiae [3], 3.8 µg; in the test on Saccharomyces cerevisiae [4], 2 µg.
Turning to `CCCC/C=C/C=C/CCCCC[C@@H]1C[C@H](O)[C@H](N)CN1` [PSEUDODISTOMIN E], the Activity is 12 µg with Saccharomyces cerevisiae [1], 1.8 µg with Saccharomyces cerevisiae [2], 4.3 µg in the test on Saccharomyces cerevisiae [3] and 2.3 µg with Saccharomyces cerevisiae [4].
For `CCCC/C=C/C=C/CCC/C=C/C=C/[C@@H]1C[C@@H](O)[C@@H](N)CN1` [PSEUDODISTOMIN F], the Activity in the test with Saccharomyces cerevisiae [1] was found to be 20 µg; with Saccharomyces cerevisiae [2], 3.1 µg; with Saccharomyces cerevisiae [3] it was 9 µg; with Saccharomyces cerevisiae [4] it was 3.3 µg.
Regarding `CO[C@H]1C[C@@H]2CC[C@@H](C)[C@@](O)(O2)C(=O)C(=O)N2CCCC[C@H]2C(=O)O[C@H]([C@H](C)C[C@@H]2CC[C@@H](O)[C@H](OC)C2)CC(=O)[C@H](C)/C=C(\C)[C@@H](O)[C@@H](OC)C(=O)[C@H](C)C[C@H](C)/C=C/C=C/C=C/1C` [SIROLIMUS], the Activity in the test with Saccharomyces cerevisiae [1] is 0.00043 µg; in the test with Saccharomyces cerevisiae [2] it was 0.00044 µg; with Saccharomyces cerevisiae [3], 0.00057 µg; with Saccharomyces cerevisiae [4], 0.00074 µg.
On the same counts, the results for `COC1=C(N)C(=O)c2nc(-c3nc(C(=O)O)c(C)c(-c4ccc(OC)c(OC)c4O)c3N)ccc2C1=O` [STREPTONIGRIN] are more than 0.1 µg, 0.009 µg, 0.012 µg and more than 0.1 µg.
